Assay: Syringeability of dosing solutions (dripping-syringe method)
Format: physicochemical
Method: Table 4, below, provides evaluations of the syringeability of dosing solutions of selected florfenicol benzylic carbonate prodrugs at concentrations equivalent to 300 mg/ml florfenicol (30% weight/volume).
High concentrations of fenicol or fenicol drug contained in a fenicol prodrug are often necessary for convenient administration of the necessary amount of the desired amount of the antibiotic. Due to the limited solubility of fenicols in many organic solvents or mixtures of solvents acceptable for injectable formulations the choice of solvents for preparation of highly concentrated florfenicol solutions is limited. As a result highly concentrated solutions of fenicol drugs in organic solvents or solvent mixtures may become highly viscous and difficult to administer by a syringe. Therefore the ability of fenicol benzylic carbonate prodrugs to dissolve in a wider range of organic solvents or mixtures of solvents acceptable for injectable formulations offered the potential to prepare highly concentrated solutions for injections with lower viscosity. […] Test solutions of florfenicol benzylic carbonates containing concentrations of florfenicol (mg/mL) equivalent to the concentration present in Nuflor® formulation were prepared. Syringeabilities of the solutions were evaluated by means of the “dripping syringe” method in which the dripping times (sec) of equal volumes of such solutions under free gravitational flow conditions from a vertically positioned syringe were measured at 15° C. After removing the plunger from a 5 ml polyethylene disposable syringe (5 ml Luer, Norm-Ject Zentrish/Henke Saas Wolf GMBH) and fitting the syringe with a disposable needle (B-D® 16G1 Precision Glide/BentonDickinson & CO) the test solutions were loaded from the top into the syringe and the time necessary for the free flow of 2 mL of solution (between 3 ml and 1 ml marks) was recorded in triplicate. The syringeabilities relative to Nuflor® were calculated by dividing the dripping time for the test solutions (entries 1-12) by the dripping time measured for the commercial sample of Nuflor® formulation (entry 13) As it is evident from the results in Table 4 the syringeabilities of tested solutions containing benzyl alcohol as viscosity diluent had relative syringeabilities <1.00 and were therefore better than Nuflor® (30% weight/volume florfenicol solution in propylene glycol/polyethylene glycol 300/2-methyl pyrolidinone). Due to their better syringeability these solutions represent more favorable formulations for injectable delivery of florfenicol. Solution of the florfenicol benzylic carbonate of the example 2 in triacetin/2-pyrolidinone—1/1 lacking the benzyl alcohol viscosity diluent was the only solution with syringeability poorer that than that of Nuflor® (entry 5).

[1] = 358 mg/ml, 2-pyrolidinone/benzyl alcohol - 1:1, 15° C.
[2] = 358 mg/ml, Triacetin/2-pyrolidinone - 1:1, 15° C.
[3] = 358 mg/ml, Triacetin/benzyl alcohol - 2:1.5, 15° C.

Structure (SMILES): CCOC(=O)O[C@H](c1ccc(S(C)(=O)=O)cc1)[C@@H](CF)NC(=O)C(Cl)Cl [Example 2, (1R,2S)-2-(2,2-dichloroacetamido)-3-fluoro-1-(4-(methylsulfonyl)phenyl)propyl ethyl carbonate]
- Syringeability measurement: Dripping time [1]: 108 ± 1 s
- Syringeability measurement: Relative to NUFLOR [1]: 0.46
- Syringeability measurement: Dripping time [2]: 268 ± 4 s
- Syringeability measurement: Relative to NUFLOR [2]: 1.15
- Syringeability measurement: Dripping time [3]: 97 ± 1 s
- Syringeability measurement: Relative to NUFLOR [3]: 0.42
- Syringeability measurement: Relative to NUFLOR (prodrug concentration equivalent to 300 mg/ml florfenicol, Triacetin/benzyl alcohol - 2:1 (vol/vol), 15° C.): 0.55
- Syringeability measurement: Dripping time (prodrug concentration equivalent to 300 mg/ml florfenicol, Triacetin/benzyl alcohol - 2:1 (vol/vol), free flow of 2 mL at 15° C.): 128 ± 7 s
